Reference: PubChem BioAssay (NCI)
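The compound was tested at five concentrations on cells cultured in 96-well plates, with a 48-hour exposure period. The concentration for full growth arrest is given as TGI.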

Key:
Experiment in all cases: growth of human tumour cells (NCI), 48 h
[1] = system: OVCAR-5 ovarian
[2] = system: RPMI-8226 leukemia
[3] = system: HL-60(TB) leukemia
[4] = system: LOX IMVI melanoma
[5] = system: HS 578T breast
[6] = system: NCI-H226 lung
[7] = system: K-562 leukemia
[8] = system: MALME-3M melanoma
[9] = system: SF-539 CNS
[10] = system: SN12C renal
[11] = system: SF-295 CNS
[12] = system: T-47D breast
[13] = system: SF-268 CNS
[14] = system: SR leukemia
[15] = system: RXF 393 renal
[16] = system: NCI-H522 lung
[17] = system: SK-MEL-5 melanoma
[18] = system: IGROV1 ovarian
[19] = system: SK-OV-3 ovarian
[20] = system: SK-MEL-2 melanoma
[21] = system: OVCAR-3 ovarian
[22] = system: MDA-MB-435
[23] = system: DU-145 prostate
[24] = system: TK-10 renal
[25] = system: MDA-MB-231 breast
[26] = system: A498 renal
[27] = system: ACHN renal
[28] = system: OVCAR-4 ovarian
[29] = system: HOP-62 NSCLC
[30] = system: BT-549 breast
[31] = system: MCF7 breast
[32] = system: NCI-H460 lung
[33] = system: MDA-N
[34] = system: EKVX NSCLC
[35] = system: HCT-116 colon
[36] = system: UO-31 renal
[37] = system: OVCAR-8 ovarian
[38] = system: HCC-2998 colon
[39] = system: M14 melanoma
[40] = system: KM12 colon
[41] = system: A549 NSCLC
[42] = system: HCT-15 colon
[43] = system: MOLT-4 leukemia
[44] = system: UACC-257 melanoma
[45] = system: SNB-19 CNS
[46] = system: SNB-75 CNS
[47] = system: 786-0 renal
[48] = system: U251 CNS
[49] = system: HOP-92 NSCLC
[50] = system: SK-MEL-28 melanoma
[51] = system: HT29 colon
[52] = system: SW-620 colon
[53] = system: CAKI-1 renal
[54] = system: NCI/ADR-RES ovarian
[55] = system: UACC-62 melanoma
[56] = system: COLO 205 colon
[57] = system: NCI-H23 lung
[58] = system: PC-3 prostate
[59] = system: CCRF-CEM leukemia

## Oc1ccc(-c2nc3ccc4ccccc4c3c3c2CCCC3)c(O)c1
[1]
  TGI: 49.1 µM
[2]
  TGI: > 100 µM
[3]
  TGI: > 100 µM
[4]
  TGI: > 100 µM
[5]
  TGI: 88.9 µM
[6]
  TGI: > 100 µM
[7]
  TGI: > 100 µM
[8]
  TGI: > 59.1 µM
[9]
  TGI: > 73.2 µM
[10]
  TGI: 32.8 µM
[11]
  TGI: > 74.1 µM
[12]
  TGI: > 100 µM
[13]
  TGI: > 72 µM
[14]
  TGI: > 100 µM
[15]
  TGI: > 84.3 µM
[16]
  TGI: 41.1 µM
[17]
  TGI: 27.1 µM
[18]
  TGI: > 56.5 µM
[19]
  TGI: > 100 µM
[20]
  TGI: 37.6 µM
[21]
  TGI: > 100 µM
[22]
  TGI: > 63.7 µM
[23]
  TGI: > 100 µM
[24]
  TGI: 97.9 µM
[25]
  TGI: 37 µM
[26]
  TGI: > 100 µM
[27]
  TGI: 85 µM
[28]
  TGI: > 100 µM
[29]
  TGI: > 100 µM
[30]
  TGI: > 100 µM
[31]
  TGI: > 69.8 µM
[32]
  TGI: > 100 µM
[33]
  TGI: 39.3 µM
[34]
  TGI: > 100 µM
[35]
  TGI: 22.6 µM
[36]
  TGI: > 100 µM
[37]
  TGI: > 68.1 µM
[38]
  TGI: > 100 µM
[39]
  TGI: 35.9 µM
[40]
  TGI: > 100 µM
[41]
  TGI: > 100 µM
[42]
  TGI: > 100 µM
[43]
  TGI: > 100 µM
[44]
  TGI: > 100 µM
[45]
  TGI: 71.2 µM
[46]
  TGI: > 100 µM
[47]
  TGI: 24 µM
[48]
  TGI: > 40.5 µM
[49]
  TGI: > 100 µM
[50]
  TGI: > 50.6 µM
[51]
  TGI: 25.4 µM
[52]
  TGI: > 68 µM
[53]
  TGI: > 100 µM
[54]
  TGI: > 100 µM
[55]
  TGI: > 50.6 µM
[56]
  TGI: 23.9 µM
[57]
  TGI: > 100 µM
[58]
  TGI: > 100 µM

## CC(/C=N/N(C)C1=NCCCN1)=N/N(C)C1=NCCCN1
[1]
  TGI: > 100 µM
[2]
  TGI: > 100 µM
[3]
  TGI: > 100 µM
[4]
  TGI: > 100 µM
[5]
  TGI: > 100 µM
[6]
  TGI: > 100 µM
[7]
  TGI: > 100 µM
[8]
  TGI: > 100 µM
[9]
  TGI: > 100 µM
[10]
  TGI: > 100 µM
[11]
  TGI: > 100 µM
[12]
  TGI: > 100 µM
[13]
  TGI: > 100 µM
[59]
  TGI: > 100 µM
[14]
  TGI: > 100 µM
[15]
  TGI: > 100 µM
[16]
  TGI: > 100 µM
[17]
  TGI: > 100 µM
[18]
  TGI: > 100 µM
[19]
  TGI: > 100 µM
[20]
  TGI: > 100 µM
[21]
  TGI: > 100 µM
[22]
  TGI: > 100 µM
[23]
  TGI: > 100 µM
[24]
  TGI: > 100 µM
[25]
  TGI: > 100 µM
[26]
  TGI: > 100 µM
[27]
  TGI: > 100 µM
[28]
  TGI: > 100 µM
[29]
  TGI: > 100 µM
[30]
  TGI: > 100 µM
[31]
  TGI: > 100 µM
[32]
  TGI: > 100 µM
[33]
  TGI: > 100 µM
[34]
  TGI: > 100 µM
[35]
  TGI: > 100 µM
[36]
  TGI: > 100 µM
[37]
  TGI: > 100 µM
[38]
  TGI: > 100 µM
[40]
  TGI: > 100 µM
[41]
  TGI: > 100 µM
[42]
  TGI: > 100 µM
[43]
  TGI: > 100 µM
[44]
  TGI: > 100 µM
[45]
  TGI: > 100 µM
[46]
  TGI: > 100 µM
[47]
  TGI: > 100 µM
[48]
  TGI: > 100 µM
[49]
  TGI: > 100 µM
[50]
  TGI: > 100 µM
[51]
  TGI: > 100 µM
[52]
  TGI: > 100 µM
[53]
  TGI: > 100 µM
[54]
  TGI: > 100 µM
[55]
  TGI: > 100 µM
[56]
  TGI: > 100 µM
[57]
  TGI: > 100 µM
[58]
  TGI: > 100 µM

## COc1ccc2c(c1)C(N)=C(c1ccccc1OC)C2=O
[1]
  TGI: > 100 µM
[2]
  TGI: > 100 µM
[3]
  TGI: > 100 µM
[4]
  TGI: > 100 µM
[5]
  TGI: > 100 µM
[6]
  TGI: > 100 µM
[7]
  TGI: > 100 µM
[8]
  TGI: > 100 µM
[9]
  TGI: > 100 µM
[10]
  TGI: > 100 µM
[11]
  TGI: > 100 µM
[12]
  TGI: > 100 µM
[13]
  TGI: > 100 µM
[59]
  TGI: > 100 µM
[14]
  TGI: > 100 µM
[15]
  TGI: > 100 µM
[18]
  TGI: > 100 µM
[19]
  TGI: > 100 µM
[20]
  TGI: > 100 µM
[21]
  TGI: > 100 µM
[22]
  TGI: > 100 µM
[23]
  TGI: > 100 µM
[24]
  TGI: > 100 µM
[25]
  TGI: > 100 µM
[26]
  TGI: > 100 µM
[27]
  TGI: > 100 µM
[28]
  TGI: > 100 µM
[29]
  TGI: > 100 µM
[30]
  TGI: > 100 µM
[31]
  TGI: > 100 µM
[32]
  TGI: > 100 µM
[33]
  TGI: > 100 µM
[34]
  TGI: > 100 µM
[35]
  TGI: > 100 µM
[36]
  TGI: > 100 µM
[37]
  TGI: > 100 µM
[38]
  TGI: > 100 µM
[39]
  TGI: > 100 µM
[40]
  TGI: > 100 µM
[42]
  TGI: > 100 µM
[43]
  TGI: > 100 µM
[44]
  TGI: > 100 µM
[45]
  TGI: > 100 µM
[46]
  TGI: > 100 µM
[47]
  TGI: > 100 µM
[48]
  TGI: > 100 µM
[49]
  TGI: > 100 µM
[50]
  TGI: > 100 µM
[51]
  TGI: > 100 µM
[52]
  TGI: > 100 µM
[53]
  TGI: > 100 µM
[54]
  TGI: > 100 µM
[55]
  TGI: > 100 µM
[56]
  TGI: > 100 µM
[57]
  TGI: > 100 µM
[58]
  TGI: > 100 µM
